From US6624140B1, “Synthetic peptides with antimicrobial and endotoxin neutralizing properties for management of the sepsis syndrome” (Academisch Ziekenhuis Bij de Universiteit van Amsterdam …, priority 1997, dated 2003)
No end group written: not given here.

How the values were obtained:
[1] = tested on: IL-6 production by endotoxin; experiment: IL-6 production in diluted whole blood, simultaneous addition of LPS and peptide; type: cell-based, human; conditions: LPS 1 ng/ml; concentrations as low as 1 μM; control even at 4-fold higher concentration; heparin 100 I.U/ml
Experimental: FIG. 9. Effect of simultaneous addition of E. coli 0111:B4 LPS and synthetic peptides on IL-6 production in whole blood diluted 1 in 10. Synthetic peptides BP1 or BP2 or the control peptide BPI(85-102) at the concentrations indicated, were added together with E. coli 0111:B4 LPS at 1 ng/ml to diluted whole blood containing heparin at 100 I.U/ml. IL-6 concentration was determined after incubation for 16 h at 37° C. Each value is the mean of triplicate experiments. Controls contained no added peptide.
The endotoxin neutralizing activities of the synthetic peptides of the invention were evaluated by investigating the effect on LPS-stimulated release of the pro-inflammatory cytokines, tumor necrosis factor alpha (TNF-α), interleukin-6 (IL-6) or interleukin-8 (IL-8) in a well characterized in vitro human whole blood bioassay system. In one series of experiments, dilutions of E. coli 0111:B4 LPS from 0.2 to 1 ng/ml were pre-incubated with synthetic peptides at 10 μg/ml concentrations in RPMI medium for 30 min at 20° C. and added to diluted whole blood. Cytokine concentrations in the supernatants were determined after further incubation for 16 h at 37° C. in the presence of 5% CO2 by specific and sensitive ELISA kits (CLB, Amsterdam, The Netherlands). In another series of experiments, the effects of synthetic peptides at concentrations of 2,5, 5 and 10 μg/ml on IL-6 induction by 1 ng/ml 0111:B4 LPS was examined after simultaneous addition of synthetic peptide and LPS to diluted whole blood. […] The control peptide BPI(85-102) was ineffective in reducing cytokine production under these conditions even at a 4-fold higher concentration. This probably reflects the differences in binding affinity for Lipid A of BP1 and BP2 compared with the BPI(85-102) peptide of approximately 5 and 10-fold, respectively. An additional factor which may have influenced binding of the control peptide to endotoxin is the presence of heparin employed as an anti-coagulant at a concentration of 100 I.U/ml in the assay system. […]

[2] = Turbidity assay of endotoxin complexation; type: binding, Escherichia coli; conditions: for avidity order (degree of insoluble peptide-endotoxin complex formation): 2-fold molar excess of synthetic peptide
Experimental: FIG. 2. Endotoxin complexation activity of the synthetic peptides. Peptides at concentrations of 100 to 600 μg/ml were incubated with E. coli D31m4 Re or J5 LPS at 100 μg/ml in a total volume of 100 μl pyrogen-free phosphate buffered saline (PBS) in plastic ELISA microtiter plates for 30 min at 23° C. The turbidity produced by the insoluble peptide-endotoxin complexes was measured at 340 nm. The values represent the mean of three determinations and were corrected for controls containing the same concentrations of endotoxin or peptide.
Double-immunodiffusion of the peptides of the invention against ‘rough’ R-type E. coli D31m4 Re-LPS (List Biological Laboratories Inc., Calif.) or the structurally more complex ‘smooth’ S-type E. coli 0111:B4 LPS (Sigma Chemical Co., Rockford, Ill.) was performed in 0.8% (w/v) agarose containing 50 mM Tris and 0.1% (w/v) Triton X100, pH 7.5. for 16 h at 20° C. PmB and BPI(85-102) were included as control compounds for comparative purposes. The microprecipitates formed were visualized by Coommassie brilliant blue staining. […] Since the amount of precipitate formed is a function of valency, the peptides of the invention appear to be capable of a high degree of intermolecular binding of LPS molecules via the Lipid A moieties. […] A turbidity assay was employed for a direct comparison of the endotoxin-binding activity or avidity of selected synthetic peptides according to the invention using the ‘rough’ serotypes E. coli Re or Rc (J5) LPS. PmB and BPI(85-102) were included as control compounds for comparative purposes. The degree of precipitation of endotoxin by the synthetic peptides according to the invention was determined by measurement of the optical density of insoluble complexes formed at 340 nm (FIG. 2). In most instances optimal complexation of Re or J5 LPS by the synthetic peptides of the invention was evident at a molar ratio of peptide to endotoxin of 1 to 2. The control BPI(85-102) peptide was required at a 4-fold molar excess for approximately the same degree of complexation. […] There was no significant difference between complexation of Re or the structurally more complex J5-LPS by the synthetic peptides. […] The Lipid A binding affinity of the synthetic peptides were directly compared in a solid-state endotoxin-binding assay. Binding characteristics of biotinylated derivatives of the synthetic peptides BP1, BP2, BP2.1 and the control peptide BPI(85-102) were determined on ELISA microtiter plates coated with E. coli D31m4 Lipid A. Specific binding of the biotinylated peptides to the immobilized Lipid A was determined by development with Streptavidin-HRP and 3, 5, 3′, 5′ tetra-methylbenzidine (TMB) substrate and expressed as the corrected optical density at 450 nm. […] The affinity of the novel synthetic peptide BP2 for endotoxin of increasing complexity as well as the effect of plasma on binding was examined with the use of the ELISA microplate assay.

Row | Substance | inhibition of IL-6 production [1] | avidity order (degree of insoluble peptide-endotoxin complex formation) [2] | molar excess required for approximately the same degree of complexation ([2]; Re or J5 LPS) [fold]
1 | GKWKLFKKAFKKFLKILAC-OH [BP2, Gly-Lys-Trp-Lys-Leu-Phe-Lys-Lys-Ala-Phe-Lys-Lys-Phe-Leu-Lys-Ile-Leu-Ala-Cys] | completely inhibiting | BP2.1>BP2.2>BP2>BP1>PmB >BPI(85-102) | 
2 | Ile-Lys-Ile-Ser-Gly-Lys-Trp-Lys-Ala-Gin-Lys-Arg-Phe-Leu-Lys-Met-Ser-Gly-(Cys) (IKISGKWKAQKRFLKMSGC; listed as Homo sapiens) [BPI(85-102), reference compound] | ineffective | BP2.1>BP2.2>BP2>BP1>PmB >BPI(85-102) | 4
3 | GRLRKKWKAFKKFLKILAC [BP1] | completely inhibiting | BP2.1>BP2.2>BP2>BP1>PmB >BPI(85-102) | 
